Experiments:
B. burgdorferi = assay: Borreliacidal assay of saliva alone versus saliva plus phospholipase A2 inhibitor OPC; assay type: cell-based, Borrelia burgdorferi; conditions: 24 hrs, A. americanum saliva plus OPC 5-40 μM; culture controls 79
Experimental: Gel filtration fractionation of A. americanum saliva produces individual fractions with borreliacidal activity. Saliva is fractionated into 11 molecular weight pools by gel filtration and then tested by a borreliacidal assay as described by Zeidner, et al. 2009. Briefly, A. americanum saliva is size fractionated on a Superdex 200 column run with 25 mM NaCl dissolved in 5 mM HEPES (pH 7.6) at a flow rate of 0.5 ml per minute. The separation is monitored at […]. Fractions are collected at 1 minute intervals into siliconized eppendorf tubes. Each collected fraction is subsequently concentrated to 100 μl using a SpeedVac. 50 μl aliquots of the fractions are pooled according to the major molecular weight peaks at between 2 and 10 fractions per pool. Each pool is subsequently concentrated to 50 μl using Micron-3K filters (Millipore, Billerica, Mass.).
Inhibition of A. americanum borreliacidal activity using oleyloxyethyl phosphorylcholine (OPC) identifies phospholipase A2 as an active component of A. americanum saliva. The borreliacidal assay of Example 6 is performed comparing saliva alone with saliva plus the phospholipase A2 inhibitor OPC. […]

[1] = tested on: B31 B. burgdorferi isolates; assay: B. burgdorferi viability, live/dead BacLight staining counts; assay type: cell-based, Borrelia burgdorferi; conditions: 35° C., BSK-H, starting 155 live spirochetes per field
Experimental: Evaluation of PLA2 protein regulation of B. burgdorferi viability. Analyses of PLA2 protein is performed essentially as described by Ledin, K. E., et al., Med. Vet. Entomol., 2005; 19(1):90-95, the contents of which are incorporated herein by reference. Frozen stocks of low-passage B31 B. burgdorferi isolates (Shelter Island, N.Y.) are reconstituted in BSK-H culture medium and maintained at 35° C. to log phase (Piesman, 1993). Spirochete cultures are diluted with BSK-H to a density of 4.7×10^7 viable spirochetes per mL as counted in a Petroff-Hauser chamber under dark-field microscopy, and distributed in 15 μL aliquots into 0.7 mL tubes for a total of 7.05×10^5 spirochetes per tube. A mean starting concentration of 155 live spirochetes per field is assessed prior to the addition of specific treatments. Each 15 μL aliquot of spirochetes in BSK-His treated with either 15 μL of sterile PBS, 15 μL of 1.33 mg/mL pilocarpine (based on the mid-range of pilocarpine found in previous analysis of tick saliva, (Ribeiro et al., 2004) in sterile PBS, or 15 μL of tick saliva, and incubated at 35° C. 10 μL samples taken from each of 10 prepared cultures and assessed for spirochete survival at 0, 24 and 48 h. Time points for spirochete survival assessment are chosen based on previous observations of post-feeding decreases in spirochete-positive ticks (Ryder et al., 1992). […]

Row | SMILES | percent control live spirochetes (B. burgdorferi) | average number of live spirochetes (mean) ([1]; 24 h post-exposure) | average number of live spirochetes (mean) ([1]; 48 h post-exposure)
1 | CCCCCCCC/C=C\CCCCCCCCOCCOP(=O)([O-])OCC[N+](C)(C)C [OPC, oleyloxyethyl phosphorylcholine] | 76-78% |  | 
2 | CC[C@@H]1C(=O)OC[C@@H]1Cc1cncn1C [pilocarpine] |  | 82.1 counts per 10 high powered (10 | 58.2 counts per 10 high powered (10
